Source: US20120107391A1, “THERAPY OF PLATINUM-RESISTANT CANCER” (Genentech, Inc., priority 2004, published 2012)
Structures can show the parent of a compound that is named as a salt.

What was measured:
[1] = test system: advanced ovarian cancer; details: one of 3 subjects with advanced ovarian cancer; cited from earlier work
[2] = test system: platinum-resistant ovarian cancer; details: patients with platinum-resistant disease; cited from earlier work
[3] = cited from earlier work
[4] = test system: HRG stimulation of p180 tyrosine phosphorylation in MCF7 cells; test: Inhibition of HRG-stimulated p180 tyrosine phosphorylation in MCF7 cells (antiphosphotyrosine immunoblot, reflectance densitometry); assay type: cell-based, human; details: MCF7, 0.2 nM rHRGβ1
Experimental: MCF7 cells were seeded in 24-well plates (1×10^5 cells/well) and grown to about 85% confluency for two days.
MCF7 cells were plated in 24-well plates and monoclonal antibodies to HER2 were added to each well and incubated for 30 minutes at room temperature; then rHRGβ1177-244 was added to each well to a final concentration of 0.2 nM, and the incubation was continued for 8 minutes. Media was carefully aspirated from each well, and reactions were stopped by the addition of 100 μl of SDS sample buffer (5% SDS, 25 mM DTT, and 25 mM Tris-HCl, pH 6.8). Each sample (25 μl) was electrophoresed on a 4-12% gradient gel (Novex) and then electrophoretically transferred to polyvinylidene difluoride membrane. Antiphosphotyrosine (4G10, from UBI, used at 1 μg/ml) immunoblots were developed, and the intensity of the predominant reactive band at Mr ˜180,000 was quantified by reflectance densitometry, as described previously (Holmes et al. Science 256:1205-1210 (1992); Sliwkowski et al. J. Biol. Chem. 269:14661-14665 (1994)).

[5] = test system: MDA-MB-175 cells; test: Growth inhibition of MDA-MB-175 cells, crystal violet staining, 4 days; assay type: cell-based; details: 10 μg/mL
Experimental: Experiment was carried out in medium containing 1% serum. HER2 antibodies or medium alone were added and the cells were incubated for 2 hours at 37° C. Subsequently rHRGβ1 (1 nM) or medium alone were added and the cells were incubated for 4 days. Monolayers were washed and stained/fixed with 0.5% crystal violet. To determine cell proliferation the absorbance was measured at 540 nm.
HER2 levels in MDA-MB-175 cells are 4-6 times higher than the level found in normal breast epithelial cells and the HER2-HER4 receptor is constitutively tyrosine phosphorylated in MDA-MB-175 cells. […] Inhibition of cell proliferation by 4D5 is dependent on the HER2 expression level (Lewis et al. Cancer Immunol. Immunother. 37:255-263 (1993)). […] However this effect could be overcome by exogenous HRG.

[6] = test system: SK-BR-3 cells; test: Growth inhibition of SK-BR-3 cells, crystal violet staining, 4 days, with or without rHRGβ1; assay type: cell-based, human; details: FIG. 4B
[7] = test system: mitogen-activated protein kinase (MAPK) activation in MCF7 cells; test: EGF, TGF-α or HRG mediated activation of MAPK in MCF7 cells (Western blot); assay type: cell-based, human; details: 200 nM antibody, 1 nM EGF, 1 nM TGF-α or 0.2 nM HRG
Experimental: Many growth factor receptors signal through the mitogen-activated protein kinase (MAPK) pathway. These dual specificity kinases are one of the key endpoints in signal transduction pathways that ultimately triggers cancer cells to divide. […] MCF7 cells (10^5 cells/well) were plated in serum containing media in 12-well cell culture plates. The next day, the cell media was removed and fresh media containing 0.1% serum was added to each well. This procedure was then repeated the following day and prior to assay the media was replaced with serum-free binding buffer (Jones et al. J. Biol. Chem. 273:11667-74 (1998); and Schaefer et al. J. Biol. Chem. 274:859-66 (1999)). […] Cells were then treated with 1 nM EGF, 1 nM TGF-α or 0.2 nM HRG for 15 minutes. The reaction was stopped by aspirating the cell medium and then adding 0.2 mL SDS-PAGE sample buffer containing 1% DTT. MAPK activation was assessed by Western blotting using an anti-active MAPK antibody (Promega) as described previously (Jones et al. J. Biol. Chem. 273:11667-74 (1998)).

[8] = test system: Akt activation in MCF7 breast cancer cells; details: cited from earlier work

Pertuzumab: Antibody with light and heavy chain SEQ ID NOS. 16 and 17; humanized version 574 variable domains with human IgG1 constant region
response [1]: durable partial response

Nc1ccn([C@@H]2O[C@H](CO)[C@@H](O)C2(F)F)c(=O)n1 [Gemcitabine, 2′-deoxy-2′,2′-difluorocytidine monohydrochloride (b-isomer)]
partial response rate [2]: 16%
toxicity when combined with other chemotherapeutic agents ([3]; combined with taxanes, anthracyclines, platinums): without any significant increases or unexpected toxicities
combined incidence of nausea and vomiting ([3]; single agent): 69%
incidence of anemia ([3]; single agent): 68%
incidence of diarrhea ([3]; single agent): 19%
incidence of neutropenia ([3]; single agent): 63%
incidence of rash ([3]; single agent): 30%
nausea and vomiting, grade III incidence ([3]; single agent): 13%
nausea and vomiting, grade IV incidence ([3]; single agent): 1%
rash, grade III incidence ([3]; single agent): 1%

CC[C@@]1(O)C(=O)OCc2c1cc1n(c2=O)Cc2cc3c(CN(C)C)c(O)ccc3nc2-1 [Topotecan]
partial response rate [2]: 6%

2C4: Murine monoclonal antibody binding the extracellular domain of HER2, ATCC HB-12697 [Mutant 2C4]
generation of HRG-induced tyrosine phosphorylation signal at Mr 180,000 [4]: significantly inhibited
growth inhibitory effect on MDA-MB-175 cells [5]: strong growth inhibitory effect
inhibitory effect on HER2 overexpressing cell line SK-BR-3 [6]: no inhibitory effect
block of EGF, TGF-α and HRG mediated activation of MAPK [7]: significantly blocks
basal level of Akt activation ([8]; MCF7, absence of heregulin addition): further reduced
heregulin-mediated Akt activation ([8]; MCF7, Agus et al. 2002): inhibits
